In one series the test system is Apis mellifera. Particulars: acute, mortality.
The subject of another series is Daphnia magna. Particulars: chronic/long-term; duration: 21 days; reproduction.
The subject of the next series is Folsomia candida. Particulars: chronic/long-term; duration: 28 days; reproduction.
Another series concerns Hyalella azteca. Particulars: chronic/long-term; duration: 42 days.
Series [1] has as its system Oncorhynchus mykiss. Particulars: acute; duration: 96 hours; mortality.
The next series deals with Oryctolagus sp. Particulars: reproduction developmental; body weight.
The subject of the next series is Tagia sp. Particulars: chronic/long-term; duration: 56 days; reproduction.
For series [2], the system named is Oncorhynchus mykiss. Nature of the series: LC10; higher = less toxic. Particulars: chronic/long-term; mortality.

Values after ≈ are worked out from the molar mass of the structure shown.

Take `CCCCN(CC)c1c([N+](=O)[O-])cc(C(F)(F)F)cc1[N+](=O)[O-]` [Benfluralin]: the LD50 in the series on Apis mellifera (dermal) is greater than 100 µg/piece; with Apis mellifera (oral, unspecified) it was greater than 111 µg/piece; with Colinus virginianus (acute, oral, mortality), greater than 2000 mg/kg-day; in the series with Rattus norvegicus (acute, oral, mortality), greater than 5000 mg/kg-day. The molecule further had an NOEL with Colinus virginianus (reproduction developmental) of 6.7 mg/kg-day. The NOEC in the series on Daphnia magna amounted to 0.046 mg/L; in the series with Folsomia candida it was 5.5 mg/kg; in the series with Hyalella azteca, 83 mg/kg; in the series with Tagia sp., 15.4 mg/kg. For the same molecule, the LC50 (as a rule, the concentration lethal to half of the exposed cells or organisms) with Oncorhynchus mykiss [1] came to 0.081 mg/L (≈ 0.242 µM). Besides, the no-observed-adverse-effect level (NOAEL) (usually the highest dose or exposure tested at which no adverse effect was seen) came to 50 mg/kg-day in the series on Oryctolagus sp.; 0.5 mg/kg-day in the series on Rattus norvegicus (chronic, duration: 2 years, histopathology: nonneoplastic); 5.5 mg/kg-day with Rattus norvegicus (reproduction developmental, body weight). The same molecule showed an LC10 in the series with Oncorhynchus mykiss [2] of 0.0013 mg/L (≈ 0.00388 µM).
